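Cultured in 96-well plates, cells were exposed to test compound for 48 hours across five concentrations. GI50 is the concentration that inhibits growth by half.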 Activity calls are given as the source filed them. No stated cut-off is given here; in the data, active = GI50 up to about 1.1 µM and inactive = higher. Non-standard residues stand in square brackets, D forms with d. Residues, ends and D or L forms follow the SMILES beside them. *: point of attachment. X30 = COC1=CC(=O)N(C(=O)[C@@H](O*)C(C)C)[C@H]1Cc1ccccc1; NMeL = CN[C@@H](CC(C)C)C(=O)O; Cbz = O=C(OCc1ccccc1)*
Tests used:
Test in all cases: NCI-60 cell line screen, 48 h
SW-620 = test system: SW-620
SK-MEL-2 = test system: SK-MEL-2
ACHN = test system: ACHN
Hs-578T = test system: Hs-578T
OVCAR-3 = test system: OVCAR-3
MDA-MB-231 = test system: MDA-MB-231
NCI-H226 = test system: NCI-H226
RPMI-8226 = test system: RPMI-8226
OVCAR-4 = test system: OVCAR-4
U-251 = test system: U-251
A549 = test system: A549
HOP-92 = test system: HOP-92
PC-3 = test system: PC-3
NCI-H522 = test system: NCI-H522
HL-60 = test system: HL-60
HOP-62 = test system: HOP-62
BT-549 = test system: BT-549
SK-MEL-5 = test system: SK-MEL-5
SK-MEL-28 = test system: SK-MEL-28
HCC 2998 = test system: HCC 2998

SMILES	GI50 (SW-620)	GI50 (SK-MEL-2)	GI50 (ACHN)	GI50 (Hs-578T)	GI50 (OVCAR-3)	GI50 (MDA-MB-231)	GI50 (NCI-H226)	GI50 (RPMI-8226)	GI50 (OVCAR-4)	GI50 (U-251)	GI50 (A549)	GI50 (HOP-92)	GI50 (PC-3)	GI50 (NCI-H522)	GI50 (HL-60)	GI50 (HOP-62)	GI50 (BT-549)	GI50 (SK-MEL-5)	GI50 (SK-MEL-28)	GI50 (HCC 2998)
C1CCNCC1.Oc1ncnc2[nH]cc(CN3CCCCC3)c12	38 µM (inactive)	> 100 µM (inactive)	98.4 µM (inactive)	> 100 µM (inactive)	> 100 µM (inactive)	> 100 µM (inactive)	> 100 µM (inactive)	22 µM (inactive)	62.4 µM (inactive)	> 100 µM (inactive)	> 100 µM (inactive)	77.3 µM (inactive)	> 100 µM (inactive)	86.3 µM (inactive)	19.8 µM (inactive)	> 100 µM (inactive)	> 100 µM (inactive)	> 100 µM (inactive)	> 100 µM (inactive)	–
CN(C)Cc1cc(C(=O)O)cc(CN(C)C)c1O	> 100 µM (inactive)	> 100 µM (inactive)	> 100 µM (inactive)	> 100 µM (inactive)	> 100 µM (inactive)	> 100 µM (inactive)	> 100 µM (inactive)	> 100 µM (inactive)	> 100 µM (inactive)	> 100 µM (inactive)	> 100 µM (inactive)	> 100 µM (inactive)	> 100 µM (inactive)	> 100 µM (inactive)	> 100 µM (inactive)	> 100 µM (inactive)	> 100 µM (inactive)	> 100 µM (inactive)	> 100 µM (inactive)	> 100 µM (inactive)
CCN1CCC(O)(/C=C/c2ccc(C(C)C)cc2)C(C(=O)/C=C/c2ccc(C(C)C)cc2)C1 (configuration not stated)	2.67 µM (inactive)	3.08 µM (inactive)	1.75 µM (inactive)	2.31 µM (inactive)	2.84 µM (inactive)	1.87 µM (inactive)	2.82 µM (inactive)	0.697 µM (active)	3.04 µM (inactive)	2.61 µM (inactive)	3.37 µM (inactive)	1.85 µM (inactive)	3.52 µM (inactive)	2.1 µM (inactive)	2.98 µM (inactive)	3.52 µM (inactive)	4.15 µM (inactive)	4.42 µM (inactive)	4.51 µM (inactive)	1.81 µM (inactive)
O=C1C2CCN(CC2)C1(CO)CO	18.2 µM (inactive)	71.8 µM (inactive)	17.9 µM (inactive)	31.3 µM (inactive)	15.9 µM (inactive)	20.9 µM (inactive)	28.1 µM (inactive)	17.8 µM (inactive)	19.4 µM (inactive)	41.1 µM (inactive)	78.3 µM (inactive)	22 µM (inactive)	> 79.1 µM (inactive)	13.1 µM (inactive)	38.7 µM (inactive)	> 88.5 µM (inactive)	19.8 µM (inactive)	47.4 µM (inactive)	26.4 µM (inactive)	–
Cc1cn([C@H]2[C@@H](CO)C[C@H]2O)c(=O)[nH]c1=O	> 100 µM (inactive)	> 100 µM (inactive)	> 100 µM (inactive)	> 100 µM (inactive)	> 100 µM (inactive)	> 100 µM (inactive)	> 100 µM (inactive)	> 100 µM (inactive)	> 100 µM (inactive)	> 100 µM (inactive)	> 100 µM (inactive)	> 100 µM (inactive)	> 100 µM (inactive)	> 100 µM (inactive)	> 100 µM (inactive)	> 100 µM (inactive)	> 100 µM (inactive)	> 100 µM (inactive)	> 100 µM (inactive)	> 100 µM (inactive)
O=C1c2cc(O)c(O)cc2O[C@H](c2ccc(O)c(O)c2)[C@H]1O	> 100 µM (inactive)	> 100 µM (inactive)	> 100 µM (inactive)	> 100 µM (inactive)	> 100 µM (inactive)	> 100 µM (inactive)	85.1 µM (inactive)	> 100 µM (inactive)	–	> 100 µM (inactive)	> 100 µM (inactive)	> 100 µM (inactive)	> 100 µM (inactive)	> 100 µM (inactive)	> 100 µM (inactive)	80.7 µM (inactive)	> 100 µM (inactive)	> 100 µM (inactive)	> 100 µM (inactive)	> 100 µM (inactive)
CCCCCCOc1ccc(C(=O)N(C)O)cc1	10.2 µM (inactive)	32.4 µM (inactive)	6.01 µM (inactive)	65.2 µM (inactive)	9.68 µM (inactive)	41.9 µM (inactive)	13.5 µM (inactive)	7.55 µM (inactive)	31.4 µM (inactive)	12.5 µM (inactive)	12.1 µM (inactive)	21.1 µM (inactive)	12.1 µM (inactive)	9.86 µM (inactive)	4.01 µM (inactive)	11 µM (inactive)	33.7 µM (inactive)	17.6 µM (inactive)	40.7 µM (inactive)	17.7 µM (inactive)
Nc1ccn(C2CC(O)C(COP(=O)(S)OC3CC(n4ccc(N)nc4=O)OC3CO)O2)c(=O)n1 (configuration not stated)	> 100 µM (inactive)	> 100 µM (inactive)	> 100 µM (inactive)	> 100 µM (inactive)	> 100 µM (inactive)	> 100 µM (inactive)	–	> 100 µM (inactive)	> 100 µM (inactive)	> 100 µM (inactive)	> 100 µM (inactive)	> 100 µM (inactive)	> 100 µM (inactive)	> 100 µM (inactive)	> 100 µM (inactive)	> 100 µM (inactive)	> 100 µM (inactive)	> 100 µM (inactive)	> 100 µM (inactive)	> 100 µM (inactive)
CC(=O)NC1=C(C)C(=O)c2c(nc3n2CC[C@H]3OC(C)=O)C1=O	1.53 µM (inactive)	1.41 µM (inactive)	2.78 µM (inactive)	3.21 µM (inactive)	0.0982 µM (active)	1.37 µM (inactive)	9.77 µM (inactive)	1.36 µM (inactive)	0.891 µM (active)	1.59 µM (inactive)	8.32 µM (inactive)	0.416 µM (active)	0.637 µM (active)	1.54 µM (inactive)	0.834 µM (active)	10.8 µM (inactive)	1.59 µM (inactive)	3.09 µM (inactive)	2.22 µM (inactive)	2.52 µM (inactive)
C=C1C[C@]23CC[C@@H]4C(CO)(CO)CC(=O)C[C@]4(C)[C@@H]2CC[C@H]1C3	> 100 µM (inactive)	> 100 µM (inactive)	> 100 µM (inactive)	> 100 µM (inactive)	> 100 µM (inactive)	> 100 µM (inactive)	93.8 µM (inactive)	> 100 µM (inactive)	> 100 µM (inactive)	> 100 µM (inactive)	> 100 µM (inactive)	> 100 µM (inactive)	40.5 µM (inactive)	> 100 µM (inactive)	> 100 µM (inactive)	> 100 µM (inactive)	> 100 µM (inactive)	–	> 100 µM (inactive)	> 100 µM (inactive)
COC(=O)/C=C/c1ccccc1N=[S@](C)(=O)c1ccc(C)cc1	8.89 µM (inactive)	21.8 µM (inactive)	32.6 µM (inactive)	18.7 µM (inactive)	14.6 µM (inactive)	23.8 µM (inactive)	36.1 µM (inactive)	18 µM (inactive)	26.1 µM (inactive)	17.7 µM (inactive)	27.9 µM (inactive)	35 µM (inactive)	13.4 µM (inactive)	2.86 µM (inactive)	2.32 µM (inactive)	24.2 µM (inactive)	33 µM (inactive)	5.62 µM (inactive)	16.4 µM (inactive)	24.2 µM (inactive)
O=C1N(C2CCCCC2)C(=O)N1C1CCCCC1	1.95 µM (inactive)	1.49 µM (inactive)	0.0562 µM (active)	0.0409 µM (active)	1.87 µM (inactive)	1.33 µM (inactive)	0.416 µM (active)	–	1.68 µM (inactive)	0.388 µM (active)	0.245 µM (active)	0.149 µM (active)	0.233 µM (active)	0.328 µM (active)	< 0.01 µM (active)	0.425 µM (active)	0.0272 µM (active)	0.439 µM (active)	1.19 µM (inactive)	1.16 µM (inactive)
COC1=CC(=O)N(C(=O)[C@@H](OC(=O)[C@@H]2CCCN2C(=O)[C@@H]2CCCN2C(=O)[C@H](CC(C)C)N(C)C(=O)[C@@H](NC(=O)[C@@H](NC(=O)OCc2ccccc2)C(C)C)C(C)C)C(C)C)[C@H]1Cc1ccccc1 (Cbz-VV[NMeL]PP-X30)	> 100 µM (inactive)	9.42 µM (inactive)	> 100 µM (inactive)	> 100 µM (inactive)	47.1 µM (inactive)	15 µM (inactive)	> 100 µM (inactive)	17.6 µM (inactive)	> 100 µM (inactive)	24.9 µM (inactive)	76.7 µM (inactive)	20.5 µM (inactive)	11.2 µM (inactive)	> 100 µM (inactive)	> 100 µM (inactive)	21.4 µM (inactive)	23.1 µM (inactive)	–	> 100 µM (inactive)	> 100 µM (inactive)
O=S(=O)(O)c1cc(O)c(/N=N/c2ccc3ccccc3c2O)c2ccccc12 [ERIOCHROME BLUE BLACK B]	33.9 µM (inactive)	26.9 µM (inactive)	24.6 µM (inactive)	40.8 µM (inactive)	4.71 µM (inactive)	16.4 µM (inactive)	16.1 µM (inactive)	41.7 µM (inactive)	78.3 µM (inactive)	32.4 µM (inactive)	21.1 µM (inactive)	28.5 µM (inactive)	34.3 µM (inactive)	15.1 µM (inactive)	6.17 µM (inactive)	30.3 µM (inactive)	37.3 µM (inactive)	11.9 µM (inactive)	45.6 µM (inactive)	–

From ChEMBL document CHEMBL1201862, “PubChem BioAssay data set” (2004)
